Our source for the IC50 values is patent publication US7132438B2, “Benzimidazole derivatives” (priority 2001, dated 2006).

Structures are written as SMILES. Read-outs that look alike come from different tables or passages of the source. Some results are limits rather than exact numbers.

One assay has as its target T1, IRAK-1 (Homo sapiens, UniProt P51617).
T1 construct: Recombinant, full-length IRAK-1 or IRAK-4 enzyme (baculovirus expression system) was added; Flag (N); made in house
In words: Enzymatic inhibition assay, IRAK-1 kinase activity (chemiluminescent ELISA). The format is biochemical. The protocol:
Enzymatic inhibition assay.
(§1) 96-well polystyrene microtiter plates were coated with neutravidin for IRAK-1 or streptavidin for IRAK-4 ([…] in PBS, overnight at 4° C.). The coating solution was removed and in 80 μL/well a kinase reaction mixture was added (for IRAK-1: 20 mM Tris-HCl, pH 7.5, 10 mM MgCl2, 2 mM EGTA, 1 mM NaF, 0.5 mM benzamidine, 1 mM DTT, 3 μM ATP, […] of biotinylated substrate peptide bio-[…], sequence derived from IRAK-1; for IRAK-4: 20 mM Tris-HCl, pH 7.5, 10 mM MgCl2, 2 mM EGTA, 1 mM NaF, 0.5 mM benzamidine, 1 mM DTT, 10% glycerol, 10 μM ATP, […] of biotinylated substrate peptide bio-[…], sequence derived from GFAP).
(§2) At 10 μL/well in DMSO test compounds were added covering a final concentration range from 1 nM to […]. Recombinant, full-length IRAK-1 or IRAK-4 enzyme (baculovirus expression system) was added in 10 μL buffer containing Tris-HCl pH 7.5 20 mM, EGTA 2 mM, benzamidine 0.5 mM, DTT 1 mM, MgCl2 10 mM and glycerol 10% (IRAK-4 only) to initiate the kinase reaction. The reaction mixture was incubated at room temperature for 60 min on a shaker. During this incubation the substrate peptide is being phosphorylated by the kinase and gets captured onto the surface of the wells by neutravidin or streptavidin, respectively. The plate was washed 3× with 150 μL distilled water to terminate the reaction and remove components of the reaction mixture. A conventional chemiluminescent ELISA detection technique was initiated by adding 100 μL/well primary antibody (monoclonal antibody YC10, generated to recognize the phosphorylated epitope in the substrate peptide; used at 1:20,000 dilution for IRAK-1 and 1:10,000 dilution for IRAK-4) premixed with horseradish peroxidase (HRP) conjugated anti-mouse secondary antibody (commercially available from several sources; used at 1:10,000 dilution) in PBS containing 2% BSA. The solution was incubated at room temperature for 40 min on a shaker, then washed 3× with 150 μL of water. 100 μL/well 10× diluted SuperSignal HRP substrate (from Pierce) was added and after 5 min incubation the chemiluminescent signal was captured by a Labsystems LuminoSkan luminometer.
A general note: ELISA stands for enzyme-linked immunosorbent assay.

In the next assay the target is T2, IRAK-4 (Homo sapiens, UniProt Q9NWZ3).
T2 construct: Recombinant, full-length IRAK-1 or IRAK-4 enzyme (baculovirus expression system) was added; His (N); made in house
T2 sequence (Q9NWZ3 1-460): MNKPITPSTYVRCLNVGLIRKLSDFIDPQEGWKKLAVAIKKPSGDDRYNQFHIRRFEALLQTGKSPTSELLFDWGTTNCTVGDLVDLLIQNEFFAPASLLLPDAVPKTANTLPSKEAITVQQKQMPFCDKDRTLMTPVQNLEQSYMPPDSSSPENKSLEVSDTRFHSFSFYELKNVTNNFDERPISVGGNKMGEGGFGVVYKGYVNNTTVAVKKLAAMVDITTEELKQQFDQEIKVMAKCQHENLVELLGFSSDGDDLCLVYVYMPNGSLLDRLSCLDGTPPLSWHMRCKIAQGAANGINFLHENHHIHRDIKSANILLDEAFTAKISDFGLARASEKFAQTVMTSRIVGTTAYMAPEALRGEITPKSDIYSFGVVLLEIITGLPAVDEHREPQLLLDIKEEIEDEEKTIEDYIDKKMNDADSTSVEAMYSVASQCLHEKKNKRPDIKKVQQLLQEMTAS
In words: Enzymatic inhibition assay, IRAK-4 kinase activity (chemiluminescent ELISA). The format is biochemical. The protocol: Enzymatic inhibition assay. This example provides a method that is useful for evaluating test compounds for inhibition of IRAK-1 or IRAK-4 kinase activity.
as §1
as §2, with “luminometer. The point of 50% inhibition of IRAK-1 or IRAK-4 enzyme activity (IC50) was determined (see Table 1).” for “luminometer.”

The mark [1] stands for this setting: recombinant full-length IRAK-1, 3 μM ATP, 60 min room temperature, read-out: IC50 values (μM) IRAK-1.
Setting [2] is: recombinant full-length IRAK-4, 10 μM ATP, 60 min room temperature, read-out: IC50 values (μM) IRAK-4.

T1 sequence (P51617 whole entry): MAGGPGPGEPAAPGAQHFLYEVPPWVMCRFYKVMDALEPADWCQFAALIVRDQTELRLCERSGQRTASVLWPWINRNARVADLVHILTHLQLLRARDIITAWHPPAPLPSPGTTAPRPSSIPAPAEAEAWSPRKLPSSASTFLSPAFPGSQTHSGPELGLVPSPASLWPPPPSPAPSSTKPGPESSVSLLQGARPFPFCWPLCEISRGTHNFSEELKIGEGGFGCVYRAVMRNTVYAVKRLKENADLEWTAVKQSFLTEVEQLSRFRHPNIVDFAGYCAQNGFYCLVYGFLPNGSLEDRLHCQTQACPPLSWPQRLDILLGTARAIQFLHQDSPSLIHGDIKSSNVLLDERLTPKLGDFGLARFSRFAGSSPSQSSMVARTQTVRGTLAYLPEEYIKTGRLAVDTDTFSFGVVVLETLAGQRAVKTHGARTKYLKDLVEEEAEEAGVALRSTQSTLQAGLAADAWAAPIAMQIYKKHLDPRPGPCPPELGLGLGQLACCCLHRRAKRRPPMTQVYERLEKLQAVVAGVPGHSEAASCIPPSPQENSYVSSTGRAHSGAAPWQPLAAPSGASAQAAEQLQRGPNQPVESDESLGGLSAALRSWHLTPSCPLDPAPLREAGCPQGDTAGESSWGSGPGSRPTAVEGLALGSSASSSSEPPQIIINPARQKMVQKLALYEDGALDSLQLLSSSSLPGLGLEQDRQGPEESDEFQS

For the compound `Cc1cc2nc(NC(=O)c3cccc([N+](=O)[O-])c3)[nH]c2cc1C` [Compound 2, 3-nitro-N-(5,6-dimethyl-1H-benzoimidazol-2-yl)-benzamide], the IC50 on IRAK-1 (setting [1]) was 10 to 30 µM; against IRAK-4 it was below 10 µM.

With `O=[N+]([O-])c1cccc(CNc2nc3ccccc3[nH]2)c1` [Compound 17], the IC50 at IRAK-1 (setting [1]) and on IRAK-4 (setting [2]) was 10 to 30 µM each time.

Turning to `CCOC(=O)Cn1c(NC(=O)c2cccc([N+](=O)[O-])c2)nc2cc(F)c(F)cc21` [Compound 6, 3-nitro-N-(1-(ethylacet-2-yl)-5,6-difluoro-1H-benzoimidazol-2-yl)-benzamide], the IC50 against IRAK-1 is 10 to 30 µM; at IRAK-4 (setting [2]) it was below 10 µM.

Regarding `O=C(Nc1nc2ccccc2n1CCO)c1cccc(Cl)c1` [Compound 9, 3-chloro-N-(1-hydroxyethyl-1H-benzoimidazol-2-yl)-benzamide], the IC50 on IRAK-1 and at IRAK-4 (setting [2]) was below 10 µM throughout.

`O=C(Nc1nc2ccccc2n1CCN1CCOCC1)c1cccc([N+](=O)[O-])c1` [Compound 3, 3-nitro-N-(1-(2-morpholin-4-yl-ethyl)-1H-benzoimidazol-2-yl)-benzamide]: the IC50 on IRAK-1 (setting [1]) and against IRAK-4 was below 10 µM throughout.

Take `O=C(Nc1nc2ccccc2n1CCO)c1ccc(Cl)c(Cl)c1` [Compound 10, 3,4-dichloro-N-(1-hydroxyethyl-1H-benzoimidazol-2-yl)-benzamide]: the IC50 on IRAK-1 is 10 to 30 µM; at IRAK-4 (setting [2]), below 10 µM.

In the case of `CS(=O)(=O)c1cccc(C(=O)Nc2nc3ccccc3n2CCN2CCOCC2)c1` [Compound 12, 3-methanesulfonyl-N-(1-(2-morpholin-4-yl-ethyl)-1H-benzoimidazol-2-yl)-benzamide], the IC50 at IRAK-1 and on IRAK-4 (setting [2]) was below 10 µM throughout.

Take `O=C(Nc1nc2ccccc2n1CCN1CCOCC1)c1cccs1` [Compound 14, N-(1-(2-morpholin-4-yl-ethyl)-1H-benzoimidazol-2-yl)-2-thiophenecarboxamide]: the IC50 on IRAK-1 and on IRAK-4 (setting [2]) was 10 to 30 µM in each case.

Turning to `COC(=O)c1ccc2c(c1)nc(NC(=O)c1cccc([N+](=O)[O-])c1)n2CCO` [Compound 7a, 3-nitro-N-(1-hydroxyethyl-5-carboxymethyl-1H-benzoimidazol-2-yl)-benzamide], the IC50 against IRAK-1 and on IRAK-4 (setting [2]) was below 10 µM throughout.

As to `COC(=O)c1cccc(C(=O)Nc2nc3ccccc3n2CCN2CCOCC2)c1` [Compound 11, 3-carboxymethyl-N-(1-(2-morpholin-4-yl-ethyl)-1H-benzoimidazol-2-yl)-benzamide], the IC50 on IRAK-1 and on IRAK-4 (setting [2]) was below 10 µM each time.

For the compound `COC(=O)CCCn1c(NC(=O)c2cccc([N+](=O)[O-])c2)nc2ccccc21` [Compound 5, 3-nitro-N-(1-(3-carboxymethylpropyl)-1H-benzoimidazol-2-yl)-benzamide], the IC50 at IRAK-1 and on IRAK-4 (setting [2]) was below 10 µM throughout.

Regarding `O=C(Nc1nc2ccccc2n1CCN1CCOCC1)c1ccc([N+](=O)[O-])o1` [Compound 13, 5-nitro-N-(1-(2-morpholin-4-yl-ethyl)-1H-benzoimidazol-2-yl)-2-furamide], the IC50 against IRAK-1 and on IRAK-4 (setting [2]) was below 10 µM each time.

On to `O=C(Nc1nc2ccccc2[nH]1)c1cccc([N+](=O)[O-])c1` [Compound 1, 3-nitro-N-(1H-benzoimidazol-2-yl)-benzamide], for which the IC50 on IRAK-1 (setting [1]) and on IRAK-4 was below 10 µM in each case.

In the case of `O=C(Nc1nc2cc(F)c(F)cc2n1CCN1CCOCC1)c1cccc([N+](=O)[O-])c1` [Compound 4, 3-nitro-N-(1-(2-morpholin-4-yl-ethyl)-5,6-difluoro-1H-benzoimidazol-2-yl)-benzamide], the IC50 against IRAK-1 and at IRAK-4 (setting [2]) was below 10 µM throughout.

Consider `O=C(Nc1nc2cc(F)ccc2n1[C@H]1CC[C@H](O)CC1)c1cccc([N+](=O)[O-])c1` [Compound 16, 3-nitro-N-(1-(trans-4-cyclohexanol-1-yl)-5-fluoro-1H-benzoimidazol-2-yl)-benzamide], for which the IC50 at IRAK-1 (setting [1]) and on IRAK-4 (setting [2]) was below 10 µM throughout.

Consider `CCn1c(NC(=O)c2ccc(OC)cc2)nc2ccccc21` [Compound 8, 4-methoxy-N-(1-ethyl-1H-benzoimidazol-2-yl)-benzamide], for which the IC50 against IRAK-1 and on IRAK-4 (setting [2]) was 10 to 30 µM throughout.

Regarding `CC(C)(C)C(=O)Oc1ccc2c(c1)nc(NC(=O)c1cccc([N+](=O)[O-])c1)n2CCCO` [Compound 15a, 3-nitro-N-(1-hydroxypropyl-5-(2′,2′-dimethylpropionyl)-1H-benzoimidazol-2-yl)-benzamide], on IRAK-4, the concentration for half-maximal inhibition (IC50) was below 10 µM.

For orientation: IC50 means the midpoint of a concentration-inhibition curve.
